Legend:
[1] = molecular target: M2 H+ channel, Singapore wild-type (Influenza A virus, UniProt P10920); type: cell-based, Influenza A (Singapore H2N2 isolate)
[2] = molecular target: influenza A virus M2 proton-selective ion channel, wild-type (Influenza A virus, UniProt P0DOF5); details: cited from earlier work
influenza A virus M2 proton-selective ion channel, wild-type, sequence (P0DOF5 whole entry, looked up): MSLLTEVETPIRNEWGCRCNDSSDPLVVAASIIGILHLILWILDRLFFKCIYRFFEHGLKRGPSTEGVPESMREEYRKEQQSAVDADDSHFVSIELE

M2 H+ channel, Singapore wild-type, sequence (P10920 whole entry, looked up): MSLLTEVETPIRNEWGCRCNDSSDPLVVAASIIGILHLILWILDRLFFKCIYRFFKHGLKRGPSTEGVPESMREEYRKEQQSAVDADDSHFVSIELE

SMILES	Ks (Monod coefficient, inhibitory constant) [1] [nM]	Ks (dynamic range statement) [1] [nm]	activity (growth retardation relief, O.D.600) compared between the two drugs [1]	relief of growth inhibition by the channel from the Singapore strain [1]	relief of growth retardation of bacteria expressing the M2 channel [1]	isochronic apparent inhibitory binding constant [2] [µM]
CC(N)C12CC3CC(CC(C3)C1)C2 (centres unmarked) [rimantadine, Rimantadine]	15	15	more pronounced than amantadine	substantially relieved	significantly alleviate	
NC12CC3CC(CC(C3)C1)C2 [amantadine, Amantadine]	140			substantially relieved		16

Source: US20130053277A1 (priority 2010, published 2013)
